Paper PMC2731040 (BMC Clinical Pharmacology, 2009)

Tests used:
dopaminergic tone = assay: Serum prolactin and plasma HVA (surrogate markers of dopaminergic tone); assay type: in vivo, human; conditions: both challenge sessions; change within each session not significant
Text: (§1) The interactions between MAO-A inhibitors and cocaine administered are largely unexplored. […] Therefore, measurement of dopaminergic and noradrenergic tone may be important in predicting toxic events. We measured dopaminergic tone with the surrogate marker of plasma HVA, the major brain metabolite of dopamine, and serum levels of prolactin, a hormone whose secretion is inhibited by dopamine. The surrogate for noradrenergic tone was urine concentrations of MHPG-S. In order to assess the degree of MAO-A and MAO-B inhibition, we assayed concentrations of a substrate of MAO-B, phenylethylamine (PEA). PEA would be expected to increase with MAO-B inhibition, and concentrations of MHPG-S, which is a metabolite of norepinephrine produced by MAO-A primarily in the brain [20], would be expected to decrease.

[1] = test system: nondependent cocaine-experienced subjects; assay: Adverse events and cardiovascular safety monitoring; assay type: in vivo, human
Procedure: Heart rate, blood pressure, respiration rate, skin and core temperature were recorded at specific times during the study. During infusions, measures were obtained pre-dose and at 0.17, 0.5, 0.75, 1, 1.5, 2, 2.5, 3, 3.5, 4, 4.25, 4.5, 5, 6, 8, 12, 18, 24, 36, 48, and 72 hours after dosing. The electrocardiogram was monitored continuously during the infusion and for 4 hours after the termination of the intravenous cocaine infusion. EKG tracings were recorded at each data collection point.

MAO-B = biological target: T1, MAO-B (Homo sapiens, UniProt P27338); assay type: in vivo; conditions: Day 3–4 After Cocaine Preselegiline
T1 construct: Twelve nondependent cocaine-experienced subjects received deuterium-labeled cocaine-d5 intravenously; from tissue; host or cells: whole body of living human subjects (in vivo); 24-hour urine analysed for PEA
T1 sequence (P27338 1-520): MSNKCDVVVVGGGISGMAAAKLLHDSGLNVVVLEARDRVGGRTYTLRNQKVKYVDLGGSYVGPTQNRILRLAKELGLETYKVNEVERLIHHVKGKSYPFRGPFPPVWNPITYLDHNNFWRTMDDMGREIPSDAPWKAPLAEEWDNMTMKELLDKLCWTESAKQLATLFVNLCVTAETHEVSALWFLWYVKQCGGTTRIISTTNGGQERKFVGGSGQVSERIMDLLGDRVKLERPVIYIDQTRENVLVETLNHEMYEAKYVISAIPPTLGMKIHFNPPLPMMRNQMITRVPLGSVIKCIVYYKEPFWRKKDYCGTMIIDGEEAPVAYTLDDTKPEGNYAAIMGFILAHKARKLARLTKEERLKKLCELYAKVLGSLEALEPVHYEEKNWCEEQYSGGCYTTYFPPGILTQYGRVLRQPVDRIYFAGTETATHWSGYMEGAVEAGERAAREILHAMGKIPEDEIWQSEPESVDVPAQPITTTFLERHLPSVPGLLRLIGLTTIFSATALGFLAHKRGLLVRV
Text: as §1
When subjects were in the GCRC, all urine was collected and volumes recorded. Following each cocaine infusion, urine was collected in fractions from 0 to 24, 24 to 48, and 48 to 72 hours (timed from the start of the infusion). Samples were then frozen at -70°C until analyzed. […] A qualitative screen for drugs of abuse was obtained every other day for the entire study period.

[2] = test system: nondependent cocaine-experienced subjects; assay: Subjective measures (verbal ratings, visual analog scales, POMS) during cocaine challenge sessions; assay type: in vivo, human; conditions: for Cocaine Craving (0–100), Peak change / Global Intoxication (0–100), Peak change: verbal rating; for Bad Drug Effect (0–100), Peak change / Good Drug Effect (0–100), Peak change: visual analog scale
Text: Verbal ratings of global intoxication and craving (on a scale of 0 to 100) were obtained at the same time points as the physiologic measures, with 0 representing no drug effect and 100 representing the highest level of intoxication or craving.
Visual analog scales were used to rate the degree of drug liking by moving an arrow along a 10 cm line marked at opposite ends as 0 (not at all) and 100 (extreme) using a hand-held computer (Tandy 102). Items rated on the visual analog scale included "good drug effect" and "bad drug effect," and were obtained prior to cocaine infusion and at 0.17, 0.5, 0.75, 1, 1.5, 2, 2.5, 3, 3.5, 4, 4.25, 4.5, 5, 6, and 8 hours after dosing.
The Profile of Mood States (POMS) assessed mood changes in Anger, Confusion, Fatigue, Tension, and Vigor on a scale from 0 to 4, where 0 indicated "no effect" and 4 indicates "extremely strong". Ratings were obtained prior to cocaine infusion and at 1, 3, and 6 hours after dosing.
The time courses of physiologic and subjective data were analyzed by repeated measures analysis of variance (ANOVA). Treatment conditions (Sessions 1 and 2) and observation times (hours post-dose) were considered within-subject factors. Change scores (post-dose minus pre-dose values) were used in most analyses. Raw score were used where indicated. After a significant F test, pairwise comparisons of treatment conditions were performed using the least squares means analysis. Peak effects within a session were determined for each subject and each variable and analyzed using a one-factor repeated measures ANOVA. Effects were considered statistically significant at p = 0.05. Data were adjusted for sphericity using the Huynh-Feldt adjustment factor. Huynh-Feldt-corrected significance values are reported.

[3] = Session 1: first cocaine infusion, before selegiline
[4] = Session 2: second cocaine infusion, after one week of selegiline STS

SMILES: COC(=O)[C@H]1[C@@H](OC(=O)c2ccccc2)C[C@@H]2CC[C@H]1N2C [Cocaine, cocaine]
- Serum prolactin levels after cocaine, change within session (dopaminergic tone): numerically decreased
- Adverse events ([1]; STS 6 mg/24 hours, cocaine-d5 IV 2.5 mg/kg over 4 hours): One subject vomited
- Adverse effects of cocaine following selegiline administration ([1]; cocaine infusion after one week of STS): No significant adverse effects
- Total Amount of PEA Excreted in the 24 Hour Urine Collection (MAO-B): 0.003 ± 0.004 mg
- Bad Drug Effect, Peak Time [2, 3]: 1.9 ± 2.3 Hr Postdose
- Cocaine Craving, Peak Time [2, 3]: 1.1 ± 1.3 Hr Postdose
- Global Intoxication, Peak Time [2, 3]: 0.7 ± 1 Hr Postdose
- Good Drug Effect, Peak Time [2, 3]: 0.9 ± 1.5 Hr Postdose
- POMS Anger (0–28), Peak change [2, 3]: 2.8 ± 6.4
- POMS Anger, Peak Time [2, 3]: 6 ± 0 Hr Postdose
- POMS Confusion (0–20), Peak change [2, 3]: 2.5 ± 2.8
- POMS Confusion, Peak Time [2, 3]: 6 ± 0 Hr Postdose
- POMS Depression (0–64), Peak change [2, 3]: 3 ± 6.5
- POMS Depression, Peak Time [2, 3]: 3 ± 0 Hr Postdose
- POMS Fatigue (0–28), Peak change [2, 3]: 5.9 ± 5.9
- POMS Fatigue, Peak Time [2, 3]: 6 ± 0 Hr Postdose
- POMS Tension (0–28), Peak change [2, 3]: 7.5 ± 6.1
- POMS Tension, Peak Time [2, 3]: 1 ± 0 Hr Postdose
- POMS Vigor (0–32), Peak change [2, 3]: -3.6 ± 3.4
- POMS Vigor, Peak Time [2, 3]: 6 ± 0 Hr Postdose
- Cocaine Craving (0–100), Peak change [2, 3]: 33 ± 25
- Global Intoxication (0–100), Peak change [2, 3]: 57 ± 27
- Bad Drug Effect (0–100), Peak change [2, 3]: 46 ± 31
- Good Drug Effect (0–100), Peak change [2, 3]: 66 ± 23
- Bad Drug Effect, Peak Time [2, 4]: 1.4 ± 1.9 Hr Postdose
- Cocaine Craving, Peak Time [2, 4]: 0.6 ± 0.7 Hr Postdose
- Global Intoxication, Peak Time [2, 4]: 0.6 ± 0.9 Hr Postdose
- Good Drug Effect, Peak Time [2, 4]: 1 ± 1.3 Hr Postdose
- POMS Anger, Peak Time [2, 4]: 6 ± 0 Hr Postdose
- POMS Confusion (0–20), Peak change [2, 4]: 2.7 ± 4.7
- POMS Confusion, Peak Time [2, 4]: 3 ± 0 Hr Postdose
- POMS Depression (0–64), Peak change [2, 4]: 1.5 ± 2.4
- POMS Depression, Peak Time [2, 4]: 3 ± 0 Hr Postdose
- POMS Fatigue (0–28), Peak change [2, 4]: 2.8 ± 5.3
- POMS Fatigue, Peak Time [2, 4]: 6 ± 0 Hr Postdose
- POMS Tension (0–28), Peak change [2, 4]: 4.8 ± 3.9
- POMS Tension, Peak Time [2, 4]: 1 ± 0 Hr Postdose
- POMS Vigor (0–32), Peak change [2, 4]: -3.9 ± 6.1
- POMS Vigor, Peak Time [2, 4]: 6 ± 0 Hr Postdose
- POMS Anger (0–28), Peak change ([2]; Session 2: second cocaine infusion, after one week of selegiline STS, significantly different from Session 1 (p < 0.03)): -2.1 ± 5.7
- Cocaine Craving (0–100), Peak change [2, 4]: 20 ± 21
- Global Intoxication (0–100), Peak change [2, 4]: 53 ± 23
- Bad Drug Effect (0–100), Peak change [2, 4]: 55 ± 25
- Good Drug Effect (0–100), Peak change [2, 4]: 60 ± 21
- Global intoxication, verbal ratings of craving, and good drug effect compared to baseline ([2]; both cocaine challenge sessions): increased
